# Assay results published in paper PMC9010562, “Designing a Novel Functional Peptide With Dual Antimicrobial and Anti-inflammatory Activities via in Silico Methods” (Frontiers in Immunology, 2022).
# Ends that are not written are not given here.
# Legend:
# [1] = tested on: methicillin-resistant S. aureus ATCC 33591 (MRSA); assay type: cell-based, Staphylococcus aureus; conditions: two-fold broth microdilution in MHB, 2×10^5 CFU/mL, 37°C, 18 h (24 h in the source), OD 600 nm; triplicate
# Excerpt: Every strain used in the study was purchased from the Korean Culture Center of Microorganisms (KCCM, Seoul, Korea) or the American Type Culture Collection (ATCC, Manassas, VA, USA). The following bacterial strains were used in this study: Escherichia coli KCCM 11234 (E. coli), Pseudomonas aeruginosa ATCC 9027 (P. aeruginosa), Bacillus cereus KCCM 21366 (B. cereus), Staphylococcus aureus KCCM 11335 (S. aureus), and methicillin-resistant S. aureus ATCC 33591 (MRSA). Bacterial strains were maintained in tryptic soy broth (TSB, Difco Laboratories, Detroit, MI, USA) and cultured under shaking incubation at 37°C. In addition, the following human cell lines were used in this study: THP-1 monocytes (ATCC TIB-202), primary adipose-derived mesenchymal stem cell (hADMSC; CEFO Co., Seoul, Korea), normal bronchial epithelial cells BEAS-2B (ATCC CRL-9609), and lung carcinoma cells H460 (ATCC HTB-177). […]
# Two-fold broth microdilution assays were performed to measure the MIC values of the peptides. […] The plates were incubated at 37°C for 18 h, and the bacterial growth was measured at 600 nm using a microplate reader (Molecular Devices, Sunnyvale, CA, USA). […] Relative colony formation was measured by counting colonies formed on agar plates, and was compared with the control plate for the relative expression.
# [2] = Serum stability test (SDS-PAGE); assay type: in vitro ADME; conditions: 25 μg peptide in 20 μL with 10% human serum (also 2%, 5%), 37°C, 12 h (also 1, 4 h); SDS-PAGE 12% gel, Coomassie staining
# Experimental: Peptide stability in human serum (HS, Sigma-Aldrich) was tested by sodium dodecyl sulfate-polyacrylamide gel electrophoresis (SDS-PAGE) ([25]). 25 μg of peptides were incubated with 2%, 5%, and 10% of HS in a total volume of 20μL. The samples, peptide control, HS controls were incubated at 37°C for 1, 4, 12 h and were mixed with 5 × protein sample buffer. The samples were loaded in 12% SDS gel along with Prosi prestained protein marker (GenDEPOT, Katy, TX, USA). After separation, gels were stained with Coomassie Brilliant Blue R-250 staining solution (Bio-Rad, Hercules, CA, USA). Gels were destained and imaged by ChemiDoc™ Imaging Systems (Bio-Rad).
# bovine red blood cells = test: Hemolytic activity; assay type: cell-based; conditions: bovine RBCs 4% (v/v) in PBS, peptide up to 50 μM, 37°C 1 h, relative to 0.1% Triton X-100 (100%), absorbance 450 nm
# Experimental: The hemolytic activity of the peptide was tested using bovine red blood cells (RBCs) purchased from Innovative Research (Novi, MI, USA). RBCs were diluted in PBS to obtain a 4% (v/v) suspension and were aliquoted at 100 μL per microtube. The RBC suspensions were mixed with an equal volume of 2-fold peptides and incubated at 37°C for 1 h. PBS and 0.1% Triton X-100 served as the negative control (0% hemolysis) and positive control (100% hemolysis), respectively. The tubes were centrifuged at 3,000 × g for 10 min at 4°C, and the supernatants were transferred to a 96-well microplate. The absorbance (Ab) was measured at 450 nm using a microplate reader (Molecular Devices). The hemolytic activity of each peptide was calculated by (Abpeptide – AbPBS)/(AbTriton X-100 – AbPBS) × 100.
# H460 cells = test: WST-8 cell viability assay; assay type: cell-based, human; conditions: WST-8, 24 h treatment
# Excerpt: (§1) Every strain used in the study was purchased from the Korean Culture Center of Microorganisms (KCCM, Seoul, Korea) or the American Type Culture Collection (ATCC, Manassas, VA, USA). The following bacterial strains were used in this study: Escherichia coli KCCM 11234 (E. coli), Pseudomonas aeruginosa ATCC 9027 (P. aeruginosa), Bacillus cereus KCCM 21366 (B. cereus), Staphylococcus aureus KCCM 11335 (S. aureus), and methicillin-resistant S. aureus ATCC 33591 (MRSA). Bacterial strains were maintained in tryptic soy broth (TSB, Difco Laboratories, Detroit, MI, USA) and cultured under shaking incubation at 37°C. In addition, the following human cell lines were used in this study: THP-1 monocytes (ATCC TIB-202), primary adipose-derived mesenchymal stem cell (hADMSC; CEFO Co., Seoul, Korea), normal bronchial epithelial cells BEAS-2B (ATCC CRL-9609), and lung carcinoma cells H460 (ATCC HTB-177). THP-1 and H460 cells were cultured in RPMI 1640 medium (Welgene Inc., Gyeongsan, Gyeongsangbuk-do, Korea) supplemented with 10% fetal bovine serum (Gibco), 1% penicillin and streptomycin (Gibco), and sodium pyruvate (Welgene Inc.). hADMSC and BEAS-2B cells were cultured in CEFOgro™ Human MSC Growth Medium (CEFO Co.) and BEGM™ Bronchial Epithelial Cell Growth Medium BulletKit™ (Lonza, Basel, Switzerland), respectively. The cells were maintained under humidified air with 5% CO2 at 37°C.
# (§2) THP-1, hADMSC, BEAS-2B, and H460 cells were seeded in 96-well plates at a density of 1×10^5 cells/mL to evaluate the cytotoxic effect of the peptides. Different concentrations of peptide were treated and incubated for 24 h. Quanti-Max WST-8 Cell Viability assay solution (Biomax, Seoul, Korea) was added to each well, and then the plate was incubated for 1 h. The absorbance was read at 450 nm using a microplate reader (Molecular Devices), and the relative cell viability was calculated.
# BEAS-2B cells = test: WST-8 cell viability assay; assay type: cell-based, human; conditions: WST-8, 24 h treatment
# Excerpt: as §1, §2
# THP-1 cells = test: WST-8 cell viability assay; assay type: cell-based, human; conditions: WST-8, 24 h treatment
# Excerpt: as §1, §2
# hADMSC cells = test: WST-8 cell viability assay; assay type: cell-based, human; conditions: WST-8, 24 h treatment
# Excerpt: as §1, §2
# [3] = tested on: Escherichia coli KCCM 11234; assay type: cell-based; conditions: two-fold broth microdilution in MHB, 2×10^5 CFU/mL, 37°C, 18 h (24 h in the source), OD 600 nm; triplicate
# Excerpt: as §1
# (§3) Two-fold broth microdilution assays were performed to measure the MIC values of the peptides. In brief, the strains were grown to an exponential phase in MHB at 37°C and then diluted to reach 2×10^5 CFU/mL in fresh media. Peptides were serially diluted in PBS and then added of 50 μL/well to a 96-well plate. An equal volume of bacterial suspensions was added to each well, resulting in final concentrations of peptides ranging from 1 to 32 μM. The wells only with the medium served as blank, while adding the medium to inoculant was used as control. The plates were incubated at 37°C for 18 h, and the bacterial growth was measured at 600 nm using a microplate reader (Molecular Devices, Sunnyvale, CA, USA). […] To perform colony forming assay, different concentrations of peptides were mixed with an equal volume of bacterial suspensions, resulting in 2×10^5 CFU/mL. The samples were spread onto tryptic soy agar (TSA, Difco Laboratories) plates after 3 h incubation and incubated overnight at 37°C. Relative colony formation was measured by counting colonies formed on agar plates, and was compared with the control plate for the relative expression.
# [4] = tested on: Pseudomonas aeruginosa ATCC 9027; assay type: cell-based; conditions: two-fold broth microdilution in MHB, 2×10^5 CFU/mL, 37°C, 18 h (24 h in the source), OD 600 nm; triplicate
# Excerpt: as §1, §3
# [5] = tested on: Bacillus cereus KCCM 21366; assay type: cell-based; conditions: two-fold broth microdilution in MHB, 2×10^5 CFU/mL, 37°C, 18 h (24 h in the source), OD 600 nm; triplicate
# Excerpt: as §1, §3
# [6] = tested on: Staphylococcus aureus KCCM 11335; assay type: cell-based; conditions: two-fold broth microdilution in MHB, 2×10^5 CFU/mL, 37°C, 18 h (24 h in the source), OD 600 nm; triplicate
# Excerpt: as §1, §3
Sequence,MIC MRSA [1] [µM],Stability in human serum [2],Hemolysis (bovine red blood cells),"Concentration from which cell viability was significantly affected, H460 (H460 cells) [µM]","Concentration from which a significant cytotoxic effect was seen, BEAS-2B (normal cell line) (BEAS-2B cells) [µM]","Concentration from which a significant cytotoxic effect was seen, THP-1 (THP-1 cells) [µM]","Concentration from which a significant cytotoxic effect was seen, hADMSC (primary cell line) (hADMSC cells) [µM]",MIC E. coli [3] [µM],MIC P. aeruginosa [4] [µM],MIC B. cereus [5] [µM],MIC S. aureus [6] [µM],"Concentration up to which cell viability was not affected, H460 (H460 cells) [µM]","Concentration up to which cell viability was not affected, BEAS-2B (BEAS-2B cells) [µM]","Concentration up to which cell viability was not affected, THP-1 (THP-1 cells) [µM]","Concentration up to which cell viability was not affected, hADMSC (hADMSC cells) [µM]"
FKGLAKLLKIGLKALAKVIQ [Ak-N’],2,exhibited stability,over 50%,0.5,2,5,2,2,2,4,0.2,,,,
NKGLAKLLKIGLKALESVIQ [Ak-N’m],32,exhibited stability,below 5%,,,,,2,8,32,8,2,2,10,2
